Read-outs that look alike come from different tables or passages of the source.
Tests used:
[1] = tested on: ovarian cancer (4 cell lines); assay: CellTiter-Glo Viability Assay, ovarian cancer; type: cell-based; conditions: Homo sapiens, inhibition of cancer cell proliferation
BT-549 = assay: CellTiter-Glo Viability Assay, breast cancer; type: cell-based; conditions: Homo sapiens, 96 h; BT-549, breast cancer, four days; read-out: EC50
HCC1599 = assay: CellTiter-Glo Viability Assay, breast cancer; type: cell-based; conditions: Homo sapiens, 96 h; HCC1599, breast cancer, four days; read-out: EC50
DU4475 = assay: CellTiter-Glo Viability Assay, breast cancer; type: cell-based; conditions: Homo sapiens, DU-4475, 96 h; DU4475, breast cancer, four days; read-out: EC50
MDA-MB-231-Luc = assay: CellTiter-Glo Viability Assay, breast cancer; type: cell-based; conditions: Homo sapiens, 96 h; MDA-MB-231-Luc, breast cancer, four days; read-out: EC50
MCF7 = assay: CellTiter-Glo Viability Assay, breast cancer; type: cell-based; conditions: Homo sapiens, 96 h; MCF7, breast cancer, four days; read-out: EC50
T47D = assay: CellTiter-Glo Viability Assay, breast cancer; type: cell-based; conditions: Homo sapiens, 96 h, breast cancer, four days, read-out: EC50
CAMA1 = assay: CellTiter-Glo Viability Assay, breast cancer; type: cell-based; conditions: Homo sapiens, CAMA-1, 96 h; CAMA1, breast cancer, four days; read-out: EC50
ZR-75-1 = assay: CellTiter-Glo Viability Assay, breast cancer; type: cell-based; conditions: Homo sapiens, 96 h; ZR-75-1, breast cancer, four days; read-out: EC50
all 50 cell lines = assay: CellTiter-Glo Viability Assay, average across all cell lines; type: cell-based; conditions: Homo sapiens; across all 50 cell lines; read-out: average EC50 for inhibition of cancer cell proliferation
In short: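 4-day proliferation, 37° C/5% CO2; 300-3,000 cells/well; compound in duplicate vs DMSO controls. Panel: breast, colorectal, heme/lymphoid, liver, lung, ovarian, pancreatic, prostate lines. Read-out: CellTiter-Glo ATP luminescence, EC50 from dose-response.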

[2] = tested on: haematopoietic & lymphoid tumors (13 cell lines); assay: CellTiter-Glo Viability Assay, haematopoietic & lymphoid tumors; type: cell-based; conditions: Homo sapiens, inhibition of cancer cell proliferation
CLK2 = biological target: T1, CLK2 (Homo sapiens, UniProt P49760); assay: CLK2 kinase activity assay (Z-lyte, Ser/Thr 6 peptide); type: biochemical; conditions: recombinant CLK2 kinase, ATP 60 μM; read-out: EC50
T1 construct: purchased Thermo Fisher (Life Technologies), Z'-LYTE Kinase Assay Kits
T1 sequence (P49760 whole entry): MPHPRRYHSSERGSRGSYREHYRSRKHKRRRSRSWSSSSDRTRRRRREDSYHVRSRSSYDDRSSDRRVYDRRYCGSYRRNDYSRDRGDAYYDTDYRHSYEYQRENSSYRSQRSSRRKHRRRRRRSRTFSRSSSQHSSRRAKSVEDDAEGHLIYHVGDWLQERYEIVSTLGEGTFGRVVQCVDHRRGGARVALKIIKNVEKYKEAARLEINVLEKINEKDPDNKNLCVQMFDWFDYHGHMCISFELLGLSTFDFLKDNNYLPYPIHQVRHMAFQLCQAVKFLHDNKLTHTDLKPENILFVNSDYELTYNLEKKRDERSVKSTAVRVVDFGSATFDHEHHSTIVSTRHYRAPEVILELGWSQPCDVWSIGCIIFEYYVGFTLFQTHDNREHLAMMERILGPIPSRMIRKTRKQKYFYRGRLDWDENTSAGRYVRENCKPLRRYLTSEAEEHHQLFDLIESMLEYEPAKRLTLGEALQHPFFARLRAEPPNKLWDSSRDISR
Protocol: All reactions were performed in duplicate.

[3] = tested on: lung cancer (4 cell lines); assay: CellTiter-Glo Viability Assay, lung cancer; type: cell-based; conditions: Homo sapiens, inhibition of cancer cell proliferation
[4] = tested on: liver cancer (3 cell lines); assay: CellTiter-Glo Viability Assay, liver cancer; type: cell-based; conditions: Homo sapiens, inhibition of cancer cell proliferation
[5] = tested on: prostate cancer (5 cell lines); assay: CellTiter-Glo Viability Assay, prostate cancer; type: cell-based; conditions: Homo sapiens
[6] = tested on: pancreatic cancer (8 cell lines); assay: CellTiter-Glo Viability Assay, pancreatic cancer; type: cell-based; conditions: Homo sapiens, inhibition of cancer cell proliferation
[7] = tested on: colorectal cancer (6 cell lines); assay: CellTiter-Glo Viability Assay, colorectal cancer; type: cell-based; conditions: Homo sapiens, inhibition of cancer cell proliferation
CLK3 = CLK3 (Homo sapiens, UniProt P49761); assay: CLK3 kinase activity assay (Z-lyte, Ser/Thr 18 peptide)
Sequence of CLK3 (P49761 whole entry): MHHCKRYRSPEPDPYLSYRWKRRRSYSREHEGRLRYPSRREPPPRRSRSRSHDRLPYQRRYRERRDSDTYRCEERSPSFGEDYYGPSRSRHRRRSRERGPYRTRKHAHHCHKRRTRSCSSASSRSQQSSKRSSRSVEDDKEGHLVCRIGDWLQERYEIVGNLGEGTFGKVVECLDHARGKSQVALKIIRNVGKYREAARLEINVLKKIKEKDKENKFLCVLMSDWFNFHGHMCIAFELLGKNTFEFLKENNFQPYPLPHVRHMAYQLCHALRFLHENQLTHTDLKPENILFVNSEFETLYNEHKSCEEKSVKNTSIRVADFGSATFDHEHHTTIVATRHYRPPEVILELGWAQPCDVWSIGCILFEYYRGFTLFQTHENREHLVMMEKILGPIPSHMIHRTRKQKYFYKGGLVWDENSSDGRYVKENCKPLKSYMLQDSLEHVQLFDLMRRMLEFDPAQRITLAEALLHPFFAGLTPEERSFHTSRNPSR

In the case of CC(C)CC(=O)Nc1cncc(-c2ccc3[nH]nc(-c4cc5c(N6CCCCC6)cncc5[nH]4)c3c2)c1 [Compound 50], the EC50 ([1]; PA-1, PA1 cell line, read-out: Ovarian cancer, EC50 (μM) PA1) is reported as 1.09 µM, the EC50 ([1]; TOV112D, TOV-112D cell line, read-out: Ovarian cancer, EC50 (μM) TOV-112D) is reported as 0.419 µM and the EC50 ([1]; OV-90 cell line, read-out: Ovarian cancer, EC50 (μM) OV-90) is reported as 1.34 µM. For the same compound, the EC50 ([1]; OVCAR-3 cell line, read-out: Ovarian cancer, EC50 (μM) OVCAR-3) was 0.67 µM, the EC50 (BT-549) was 1530 nM and the EC50 (HCC1599) was 828 nM. For the same compound, the EC50 (DU4475) was 750 nM, the EC50 (MDA-MB-231-Luc) was 1200 nM and the EC50 (MCF7) was 3.52 µM. The EC50 (T47D) was 1740 nM, the EC50 (CAMA1) was 919 nM and the EC50 (ZR-75-1) was 1110 nM. For the same compound, the EC50 (all 50 cell lines) was 1590 nM, the EC50 ([2]; DND41, DND-41 cell line, read-out: Haematopoietic & Lymphoid tumors, EC50 (μM) DND-41) was 0.258 µM and the EC50 ([2]; MV4-11, MV-4-11 cell line, read-out: Haematopoietic & Lymphoid tumors, EC50 (μM) MV-4-11) was 0.122 µM. It also gave an EC50 ([2]; Rec1, REC-1 cell line, read-out: Haematopoietic & Lymphoid tumors, EC50 (μM) REC-1) of 3.62 µM, an EC50 ([2]; SU-DHL-4, SUDHL4 cell line, read-out: Haematopoietic & Lymphoid tumors, EC50 (μM) SUDHL4) of 0.419 µM and an EC50 ([2]; HL-60 cell line, read-out: Haematopoietic & Lymphoid tumors, EC50 (μM) HL-60) of 0.767 µM. The EC50 ([2]; JM1 cell line, read-out: Haematopoietic & Lymphoid tumors, EC50 (μM) JM1) was 0.256 µM, the EC50 ([2]; JURKAT, Clone E6-1 cell line, read-out: Haematopoietic & Lymphoid tumors, EC50 (μM) JURKAT, Clone E6-1) was 1.07 µM and the EC50 ([2]; JeKo-1 cell line, read-out: Haematopoietic & Lymphoid tumors, EC50 (μM) JeKo-1) was 0.159 µM. It also gave an EC50 ([2]; KASUMI-1 cell line, read-out: Haematopoietic & Lymphoid tumors, EC50 (μM) KASUMI-1) of 1.27 µM, an EC50 ([2]; Loucy cell line, read-out: Haematopoietic & Lymphoid tumors, EC50 (μM) Loucy) of 0.174 µM and an EC50 ([2]; MOLT-4 cell line, read-out: Haematopoietic & Lymphoid tumors, EC50 (μM) MOLT-4) of 1.29 µM. For the same compound, the EC50 ([2]; TF-1 cell line, read-out: Haematopoietic & Lymphoid tumors, EC50 (μM) TF-1) was 2.73 µM, the EC50 ([2]; TOLEDO cell line, read-out: Haematopoietic & Lymphoid tumors, EC50 (μM) TOLEDO) was 0.441 µM and the EC50 (CLK2) was 3.8 nM. It also gave an EC50 ([3]; A-427, A427 cell line, read-out: Lung cancer, EC50 (μM) A427) of 0.489 µM, an EC50 ([3]; HCC78, HCC-78 cell line, read-out: Lung cancer, EC50 (μM) HCC-78) of 0.92 µM and an EC50 ([3]; NCI-H460 cell line, read-out: Lung cancer, EC50 (μM) NCI-H460) of 9.68 µM. It also gave an EC50 ([3]; NCI-H522 cell line, read-out: Lung cancer, EC50 (μM) NCI-H522) of 0.31 µM, an EC50 ([4]; SNU-398, SNU398 cell line, read-out: Liver cancer, EC50 SNU398) of 91 nM and an EC50 ([4]; HEPG2 cell line, read-out: Liver cancer, EC50 HEPG2) of 1460 nM. The EC50 ([4]; PLC/PRF/5 cell line, read-out: Liver cancer, EC50 PLC/PRF/5) was 3540 nM, the EC50 ([5]; DU-145, read-out: Prostate cancer EC50 Du-145) was 955 nM and the EC50 ([5]; PC-3, PC3 cell line, inhibition of cancer cell proliferation, read-out: Prostate cancer EC50 PC3) was 759 nM. The EC50 ([5]; 22Rv1 cell line, inhibition of cancer cell proliferation, read-out: Prostate cancer EC50 22Rv1) was 833 nM, the EC50 ([5]; LNCap clone FGC cell line, inhibition of cancer cell proliferation, read-out: Prostate cancer EC50 LNCap clone FGC) was 1640 nM and the EC50 ([5]; VCaP (Sigma) cell line, inhibition of cancer cell proliferation, read-out: Prostate cancer EC50 VCaP (Sigma)) was 1790 nM. It also gave an EC50 ([6]; BXPC-3, BxPC3 cell line, read-out: Pancreatic cancer, EC50 BxPC3) of 3410 nM, an EC50 ([6]; CAPAN-1, Capan1 cell line, read-out: Pancreatic cancer, EC50 Capan1) of 3510 nM and an EC50 ([6]; Capan-2, Capan2 cell line, read-out: Pancreatic cancer, EC50 Capan2) of 2210 nM. It also gave an EC50 ([6]; MIA PaCa-2 cell line, read-out: Pancreatic cancer, EC50 MIA PaCa-2) of 381 nM, an EC50 ([6]; PANC 05.04 cell line, read-out: Pancreatic cancer, EC50 PANC 05.04) of 2920 nM and an EC50 ([6]; PANC-1 cell line, read-out: Pancreatic cancer, EC50 PANC-1) greater than 10000 nM. It also gave an EC50 ([6]; UPAFII cell line, read-out: Pancreatic cancer, EC50 UPAFII) of 1720 nM, an EC50 ([7]; HCT-116, HCT116 cell line, read-out: Colorectal cancer, EC50 (μM) HCT116) of 0.522 µM and an EC50 ([7]; HT-29, HT29 cell line, read-out: Colorectal cancer, EC50 (μM) HT29) of 2.8 µM. For the same compound, the EC50 ([7]; SW-620, SW620 cell line, read-out: Colorectal cancer, EC50 (μM) SW620) was 0.239 µM, the EC50 ([7]; DLD-1 cell line, read-out: Colorectal cancer, EC50 (μM) DLD-1) was 1.17 µM and the EC50 ([7]; SW48 cell line, read-out: Colorectal cancer, EC50 (μM) SW48) was 0.312 µM. It also gave an EC50 ([7]; SW480 cell line, read-out: Colorectal cancer, EC50 (μM) SW480) of 0.274 µM and an EC50 (CLK3) of 35.1 nM.
